The numbers were not newly measured in patent US9877959B2, “Pharmaceutical composition containing palonosetron” (SAMYANG BIOPHARMACEUTICALS CORPORATION, priority 2013, dated 2018), which cites them from elsewhere.

Some results are limits rather than exact numbers.

The conditions of series [1]: in vivo.
A further series concerns the target T1, 5-HT3 receptor (Homo sapiens, UniProt P46098).
T1 sequence (P46098 24-478): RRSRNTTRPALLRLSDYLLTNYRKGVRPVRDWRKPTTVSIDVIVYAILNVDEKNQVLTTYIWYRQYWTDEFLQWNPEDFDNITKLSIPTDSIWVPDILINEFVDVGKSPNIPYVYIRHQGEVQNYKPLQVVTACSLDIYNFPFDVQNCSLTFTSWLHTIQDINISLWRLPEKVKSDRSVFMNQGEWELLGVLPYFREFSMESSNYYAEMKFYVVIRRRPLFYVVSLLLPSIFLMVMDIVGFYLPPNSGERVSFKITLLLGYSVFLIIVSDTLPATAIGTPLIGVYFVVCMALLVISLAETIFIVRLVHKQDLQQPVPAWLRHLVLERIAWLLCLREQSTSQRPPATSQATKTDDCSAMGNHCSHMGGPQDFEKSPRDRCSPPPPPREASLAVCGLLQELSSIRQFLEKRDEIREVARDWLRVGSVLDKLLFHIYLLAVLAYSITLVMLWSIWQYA
Conditions: relative to first-generation 5-HT3 receptor antagonists.

Broadly, the half-life is how long it takes for the measured level to halve. Turning to `O=C1c2cccc3c2C(CCC3)CN1C1CN2CCC1CC2` (stereo in doubt) [palonosetron, (3aS)-2-[(3S)-1-azabicyclo[2.2.2]oct-3-yl]-2,3,3a,4,5,6-hexahydro-1H-benz[de]isoquinolin-1-one], the half-life in series [1] is at least 40 h. Also, at 5-HT3 receptor, the “inhibitory effect on delayed vomiting, higher than that of other first-generation 5-HT3 receptor antagonists” value is given as 10 times.
